How the values were obtained:
[1] = target: K-Ras^G12C : hSOS1 interaction (Homo sapiens, UniProt Q07889); assay: Biochemical assay 1: K-Ras^G12C interaction assay with hSOS1 (HTRF); format: binding; settings: for IC50: read-out: Assay 1 (KRAS-SOS Interaction) activity expressed as IC50
[2] = target: human SOS1 (nucleotide exchange of K-Ras^G12C) (Homo sapiens, UniProt Q07889); assay: Biochemical assay 2: K-Ras^G12C activation assay by hSOS1 at high GTP concentration (HTRF); settings: high GTP; read-out: Assay 2 (KRAS-Activation by SOS high GTP) activity expressed as IC50
[3] = target: human SOS1 (loading of human K-Ras^G12C-GDP with fluorescent GTP-analog) (Homo sapiens, UniProt Q07889); assay: Biochemical assay 3: K-Ras^G12C activation assay by hSOS1 (HTRF); settings: no GTP; for IC50: read-out: Assay 3 (KRAS-Activation by SOS no GTP) activity expressed as IC50; for inhibition at 20 µM: read-out: Assay 3 (KRAS-Activation by SOS no GTP) activity expressed as % inhibition at 20 μM

COc1cc2nc(C)nc(N[C@H](C)c3cccc(-c4ccccc4C(=O)N(C)C)c3)c2cc1OC [Example 103, 3′-{(1R)-1-[(6,7-dimethoxy-2-methylquinazolin-4-yl)amino]ethyl}-N,N-dimethylbiphenyl-2-carboxamide]
IC50 [1]: 1.44 µM
IC50 [2]: 2.48 µM
IC50 [3]: 2.74 µM

COCc1ccccc1-c1cccc([C@@H](C)Nc2nc(C)nc3cc(OC)c(OC)cc23)c1 [Example 104, 6,7-dimethoxy-N-{(1R)-1-[2′-(methoxymethyl)biphenyl-3-yl]ethyl}-2-methylquinazolin-4-amine]
IC50 [1]: 1.82 µM
IC50 [2]: 1.9 µM
IC50 [3]: 2.52 µM

COc1cc2nc(C)nc(N[C@H](C)c3cccc(-c4ccc5c(ccn5C)c4)c3)c2cc1OC [Example 105, 6,7-dimethoxy-2-methyl-N-{(1R)-1-[3-{1-methyl-1H-indol-5-yl)phenyl]ethyl}quinazolin-4-amine]
IC50 [1]: 2.4 µM
IC50 [2]: 1.39 µM
IC50 [3]: 2.77 µM

COc1cc2nc(C)nc(N[C@H](C)c3cccc(-c4cccc(C(=O)N(C)C)c4)c3)c2cc1OC [Example 106, 3′-{(1R)-1-[(6,7-dimethoxy-2-methylquinazolin-4-yl)amino]ethyl}-N,N-dimethylbiphenyl-3-carboxamide]
IC50 [1]: 1.41 µM
IC50 [2]: 1.53 µM
IC50 [3]: 2.05 µM

COc1cc2nc(C)nc(N[C@H](C)c3cccc(-c4ccc(CO)s4)c3)c2cc1OC [Example 107, [5-(3-{(1R)-1-[(6,7-dimethoxy-2-methylquinazolin-4-yl)amino]ethyl}phenyl)thiophen-2-yl]methanol]
IC50 [1]: 0.319 µM
IC50 [2]: 0.467 µM
IC50 [3]: 0.438 µM

COc1cc2nc(C)nc(N[C@H](C)c3cccc(-c4ccncc4C)c3)c2cc1OC [Example 108, 6,7-dimethoxy-2-methyl-N-{(1R)-1-[3-(3-methylpyridin-4-yl)phenyl]ethyl}quinazolin-4-amine]
IC50 [1]: 0.821 µM
IC50 [2]: 0.901 µM
IC50 [3]: 1.23 µM

COc1cc2nc(C)nc(N[C@H](C)c3cccc(-c4ccc5cc[nH]c5c4)c3)c2cc1OC [Example 109, N-{(1R)-1-[3-(1H-indol-6-yl)phenyl]ethyl}-6,7-dimethoxy-2-methylquinazolin-4-amine]
IC50 [1]: 1 µM
IC50 [2]: 0.392 µM
IC50 [3]: 1.41 µM

COc1cc2nc(C)nc(N[C@H](C)c3cccc(-c4cccc5[nH]ccc45)c3)c2cc1OC [Example 110, N-{(1R)-1-[3-(1H-indol-4-yl)phenyl]ethyl}-6,7-dimethoxy-2-methylquinazolin-4-amine]
IC50 [1]: 1.04 µM
IC50 [2]: 0.908 µM
IC50 [3]: 1.19 µM

COc1ncc(-c2cccc([C@@H](C)Nc3nc(C)nc4cc(OC)c(OC)cc34)c2)cn1 [Example 111, 6,7-dimethoxy-N-{(1R)-1-[3-(2-methoxypyrimidin-5-yl)phenyl]ethyl}-2-methylquinazolin-4-amine]
IC50 [1]: 2.1 µM
IC50 [2]: 1.67 µM
IC50 [3]: 3.34 µM

COc1cc2nc(C)nc(N[C@H](C)c3cccc(-c4cccc(S(C)(=O)=O)c4)c3)c2cc1OC [Example 112, 6,7-dimethoxy-2-methyl-N-{(1R)-1-[3′-(methylsulfonyl)biphenyl-3-yl]ethyl}quinazolin-4-amine]
IC50 [1]: 0.696 µM
IC50 [2]: 0.948 µM
IC50 [3]: 1.12 µM

COc1cc2nc(C)nc(N[C@H](C)c3cccc(-c4ccc5c(c4)CCO5)c3)c2cc1OC [Example 113, N-{(1R)-1-[3-(2,3-dihydro-1-benzofuran-5-yl)phenyl]ethyl}-6,7-dimethoxy-2-methylquinazolin-4-amine]
IC50 [1]: 1.35 µM
IC50 [2]: 0.839 µM
IC50 [3]: 2.1 µM

COc1cc2nc(C)nc(N[C@H](C)c3cccc(/C=C/c4ccccc4)c3)c2cc1OC [Example 114, 6,7-dimethoxy-2-methyl-N-[(1R)-1-{3-[(E)-2-phenylethenyl]phenyl}ethyl]quinazolin-4-amine]
IC50 [1]: 5.28 µM
IC50 [2]: 2.39 µM
IC50 [3]: 9.21 µM

COc1cc2nc(C)nc(N[C@H](C)c3cccc(-c4ccc(C(=O)N(C)C)cc4)c3)c2cc1OC [Example 115, 3′-{(1R)-1-[(6,7-dimethoxy-2-methylquinazolin-4-yl)amino]ethyl}-N,N-dimethylbiphenyl-4-carboxamide]
IC50 [1]: 0.865 µM
IC50 [2]: 0.802 µM
IC50 [3]: 1.57 µM

C/C=C/c1cccc([C@@H](C)Nc2nc(C)nc3cc(OC)c(OC)cc23)c1 [Example 116, 6,7-dimethoxy-2-methyl-N-[(1R)-1-{3-[(1E)-prop-1-en-1-yl]phenyl}ethyl]quinazolin-4-amine]
IC50 [1]: 1.08 µM
IC50 [2]: 1.15 µM
IC50 [3]: 1.72 µM

COc1cc2nc(C)nc(N[C@H](C)c3cccc(C4=CCCC4)c3)c2cc1OC [Example 117, N-{(1R)-1-[3-(cyclopent-1-en-1-yl)phenyl]ethyl}-6,7-dimethoxy-2-methylquinazolin-4-amine]
IC50 [1]: 1.65 µM
IC50 [2]: 1.35 µM
IC50 [3]: 3.08 µM

COc1cc2nc(C)nc(N[C@H](C)c3cccc(-c4cccc(NS(C)(=O)=O)c4)c3)c2cc1OC [Example 118, N-(3′-{(1R)-1-[(6,7-dimethoxy-2-methylquinazolin-4-yl)amino]ethyl}biphenyl-3-yl)methanesulfonamide]
IC50 [1]: 0.529 µM
IC50 [2]: 0.481 µM
IC50 [3]: 0.774 µM

COc1cc2nc(C)nc(N[C@H](C)c3cccc(-c4ccccc4NC(C)=O)c3)c2cc1OC [Example 119, N-(3′-{(1R)-1-[(6,7-dimethoxy-2-methylquinazolin-4-yl)amino]ethyl}biphenyl-2-yl)acetamide]
IC50 [1]: 0.858 µM
IC50 [2]: 1.28 µM
IC50 [3]: 1.48 µM

COc1cc2nc(C)nc(N[C@H](C)c3cccc(-c4ccccc4S(C)(=O)=O)c3)c2cc1OC [Example 120, 6,7-dimethoxy-2-methyl-N-{(1R)-1-[2′-(methylsulfonyl)biphenyl-3-yl]ethyl}quinazolin-4-amine]
IC50 [1]: 1.59 µM
IC50 [2]: 2.02 µM
IC50 [3]: 3.53 µM

COc1cc2nc(C)nc(N[C@H](C)c3cccc(-c4ccccc4NS(C)(=O)=O)c3)c2cc1OC [Example 121, N-(3′-{(1R)-1-[(6,7-dimethoxy-2-methylquinazolin-4-yl)amino]ethyl}biphenyl-2-yl)methanesulfonamide]
IC50 [1]: 0.452 µM
IC50 [2]: 0.679 µM
IC50 [3]: 0.791 µM

COc1cc2nc(C)nc(N[C@H](C)c3cccc(-c4cccc(OCc5ccccc5)c4)c3)c2cc1OC [Example 123, N-{(1R)-1-[3′-(benzyloxy)biphenyl-3-yl]ethyl}-6,7-dimethoxy-2-methylquinazolin-4-amine]
inhibition at 20 µM ([1]; read-out: Assay 1 (KRAS-SOS Interaction) activity expressed as % inhibition at 20 μM): 52%
IC50 [2]: 13.1 µM
inhibition at 20 µM [3]: 42%

COc1cc2nc(C)nc(N[C@H](C)c3cccc(-c4cc(Cl)cc(Cl)c4)c3)c2cc1OC [Example 124, N-[{1R)-1-(3′,5′-dichlorobiphenyl-3-yl)ethyl]-6,7-dimethoxy-2-methylquinazolin-4-amine]
IC50 [1]: 18.3 µM
IC50 [2]: 9.3 µM
inhibition at 20 µM [3]: 37%

COc1cc2nc(C)nc(N[C@H](C)c3cccc(-c4ccc5c(c4)OCCO5)c3)c2cc1OC [Example 125, N-{(1R)-1-[3-(2,3-dihydro-1,4-benzodioxin-6-yl)phenyl]ethyl}-6,7-dimethoxy-2-methylquinazolin-4-amine]
IC50 [1]: 2.03 µM
IC50 [2]: 1.09 µM
IC50 [3]: 2.04 µM

COc1cc2nc(C)nc(N[C@H](C)c3ccc(C#N)cc3)c2cc1OC [Example 189, 4-{(1R)-1-[(6,7-dimethoxy-2-methylquinazolin-4-yl)amino]ethyl}benzonitrile]
IC50 [1]: 0.998 µM
IC50 [2]: 1.17 µM
IC50 [3]: 2.76 µM

COc1cc2nc(C)nc(NC(C)c3cc(Br)cc4c3OCC4)c2cc1OC (stereo not drawn) [Example 225, N-[1-(5-bromo-2,3-dihydro-1-benzofuran-7-yl)ethyl]-6,7-dimethoxy-2-methylquinazolin-4-amine]
IC50 [1]: 1.54 µM
IC50 [2]: 2.27 µM
IC50 [3]: 4.68 µM

COc1cc2nc(C)nc(NC(C)c3ccc(-c4ccccc4CNCC(N)=O)s3)c2cc1OC (stereo not drawn) [Example 279, 2-[2-(5-{1-[(6,7-dimethoxy-2-methylquinazolin-4-yl)amino]ethyl}thiophen-2-yl)-benzyl]glycinamide]
IC50 [1]: 0.176 µM
IC50 [2]: 0.168 µM
IC50 [3]: 0.16 µM

COc1cc2nc(C)nc(NC(C)c3ccc(-c4ccccc4CNCC(=O)N(C)C)s3)c2cc1OC (stereo not drawn) [Example 280, 2-[2-(5-{1-[(6,7-dimethoxy-2-methylquinazolin-4-yl)amino]ethyl}thiophen-2-yl)benzyl]-N,N-dimethylglycinamide]
IC50 [1]: 0.148 µM
IC50 [2]: 0.12 µM
IC50 [3]: 0.135 µM

CNC(=O)CNCc1ccccc1-c1ccc(C(C)Nc2nc(C)nc3cc(OC)c(OC)cc23)s1 (stereo not drawn) [Example 282, 2-[2-(5-{1-[(6,7-dimethoxy-2-methylquinazolin-4-yl)amino]ethyl}thiophen-2-yl)benzyl]-N-methylglycinamide]
IC50 [1]: 0.257 µM
IC50 [2]: 0.265 µM
IC50 [3]: 0.212 µM

COCCNC(=O)CNCc1ccccc1-c1ccc(C(C)Nc2nc(C)nc3cc(OC)c(OC)cc23)s1 (stereo not drawn) [Example 283, 2-[2-(5-{1-[(6,7-dimethoxy-2-methylquinazolin-4-yl)amino]ethyl}thiophen-2-yl)benzyl]-N-(2-methoxyethyl)glycinamide]
IC50 [1]: 0.418 µM
IC50 [2]: 0.371 µM
IC50 [3]: 0.344 µM

COc1cc2nc(C)nc(NC(C)c3ccc(-c4ccccc4CNCC(=O)NCc4ccccc4)s3)c2cc1OC (stereo not drawn) [Example 284, N-benzyl-2-[2-(5-{1-[(6,7-dimethoxy-2-methylquinazolin-4-yl)amino]ethyl}thiophen-2-yl)benzyl]glycinamide]
IC50 [1]: 1.06 µM
IC50 [2]: 0.879 µM
IC50 [3]: 0.889 µM

From US20240083857A1, “2-Methyl-Quinazolines” (Bayer Pharma Aktiengesellschaft, priority 2017, published 2024)
